The target of test [1] is dopaminergic receptors D2 (Homo sapiens, UniProt P14416). The test is described as follows: Radioligand binding assay, dopaminergic D2 receptors. Conditions: binding assay, test compound 1×10^−6 M. The method, boiled down:
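Total binding is counted by scintillation and non-specific binding subtracted using an excess of unlabelled ligand. IC50 comes from a Hill-equation fit with slope factor; Ki follows Cheng–Prusoff.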

The target of test [2] is dopaminergic receptors D3 (Homo sapiens, UniProt P35462). Description: Radioligand binding assay, dopaminergic D3 receptors. The following applies: test compound 1×10^−6 M. A digest of the protocol:
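Competition radioligand binding at human D2, D3 and D4.4 receptors, detected by scintillation counting; nonspecific binding defined with excess unlabelled ligand. Results as percent inhibition of control specific binding; IC50 by Hill-equation nonlinear regression; Ki via Cheng-Prusoff, with radioligand KD from Scatchard plot.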

Test [3] addresses T1, 5-HT1A receptor (rat hippocampus) (Rattus norvegicus, UniProt P19327).
T1 construct: hippocampus; from tissue; host or cells: rat hippocampus
T1 sequence (P19327 1-422): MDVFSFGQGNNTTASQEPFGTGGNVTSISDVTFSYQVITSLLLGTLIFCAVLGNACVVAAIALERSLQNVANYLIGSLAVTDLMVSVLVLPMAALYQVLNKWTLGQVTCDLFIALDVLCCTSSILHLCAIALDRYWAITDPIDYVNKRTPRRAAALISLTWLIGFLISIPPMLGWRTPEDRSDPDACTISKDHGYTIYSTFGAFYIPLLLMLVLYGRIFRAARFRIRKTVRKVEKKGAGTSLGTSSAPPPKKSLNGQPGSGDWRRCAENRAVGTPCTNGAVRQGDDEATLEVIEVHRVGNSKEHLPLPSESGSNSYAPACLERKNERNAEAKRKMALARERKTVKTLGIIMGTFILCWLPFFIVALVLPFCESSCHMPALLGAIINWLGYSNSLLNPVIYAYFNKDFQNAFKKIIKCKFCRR
Description: Radioligand binding assay, serotoninergic 5-HT1A receptors. The following applies: binding assay result in %, Table 5a.

In a further test the target is T2, 5-HT2A receptor (Homo sapiens, UniProt P28223).
T2 construct: purchased PerkinElmer
T2 sequence (P28223 whole entry): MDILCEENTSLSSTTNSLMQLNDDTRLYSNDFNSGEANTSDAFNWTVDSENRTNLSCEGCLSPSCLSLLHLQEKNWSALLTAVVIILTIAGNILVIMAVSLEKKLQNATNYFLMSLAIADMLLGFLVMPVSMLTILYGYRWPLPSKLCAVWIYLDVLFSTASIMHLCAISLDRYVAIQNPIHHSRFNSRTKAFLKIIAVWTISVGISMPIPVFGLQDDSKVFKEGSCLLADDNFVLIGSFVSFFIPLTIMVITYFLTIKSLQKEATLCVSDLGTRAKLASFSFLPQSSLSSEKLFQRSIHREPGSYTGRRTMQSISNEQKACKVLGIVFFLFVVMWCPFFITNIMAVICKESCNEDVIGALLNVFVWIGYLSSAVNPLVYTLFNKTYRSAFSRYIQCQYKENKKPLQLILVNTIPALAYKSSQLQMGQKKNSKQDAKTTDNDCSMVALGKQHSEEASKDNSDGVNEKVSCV
Description: Radioligand binding assay, serotoninergic 5-HT2A receptors. The following applies: binding assay result in %, Table 5a. A digest of the protocol: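 Radioligand competition binding with scintillation counting; nonspecific binding defined by excess unlabelled ligand. Data as percent inhibition of control specific binding. IC50 by Hill-equation fit of competition curves; Ki by Cheng-Prusoff, with radioligand Kd from Scatchard plot.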

The next test has as its target T3, 5-HT6 receptor (Homo sapiens, UniProt P50406).
T3 construct: purchased PerkinElmer
Description: Radioligand binding assay, serotoninergic 5-HT6 receptors. The following applies: binding assay result in %, Table 5a. A digest of the protocol:
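Values are Ki from Cheng–Prusoff, taking IC50 from Hill nonlinear regression of competition curves and KD from a Scatchard plot. Specific binding was total minus binding with excess unlabelled ligand. Radioligand displacement was detected by scintillation counting, and data were also reported as percent of control specific binding.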

The next test addresses T4, 5-HT7 receptor (Homo sapiens, UniProt P34969).
T4 construct: purchased PerkinElmer
Description: Radioligand binding assay, serotoninergic 5-HT7 receptors. The following applies: binding assay result in %, Table 5a. The method, boiled down: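 Competition binding at human 5-HT7 receptors with a radioligand, detected by scintillation counting; non-specific binding was defined with excess unlabelled ligand. IC50 came from Hill-equation fits of competition curves, and Ki from Cheng–Prusoff using radioligand concentration and Scatchard-derived KD.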

Test [4] has as its system α1 adrenergic receptors (rat cerebral cortex). Description: Radioligand binding assay, adrenergic α1 receptors. The following applies: test compound 1×10^−6 M. From the text:
The specific ligand binding to the receptors is defined as the difference between the total binding and the non-specific binding determined in the presence of the excess of unlabelled ligand.
The results are expressed as a percent of control specific binding ((measured specific binding/control specific binding)×100) and as a percent inhibition of control specific binding (100−((measured specific binding/control specific binding)×100)) obtained in the presence of the test compounds. The specific ligand binding to the receptors is defined as the difference between the total binding and the nonspecific binding determined in the presence of an excess of unlabelled ligand. Scintillation counting was the method of detection of ligand binding. The IC50 values (concentration causing a half-maximal inhibition of control specific binding) were determined by non-linear regression analysis of the competition curves generated with mean replicate values using Hill equation curve fitting (Y=D+[(A−D)/(1+(C/C50)nH)], where Y=specific binding, D=minimum specific binding, A=maximum specific binding, C=compound concentration, C50=IC50, and nH=slope factor). […] The inhibition constants (Ki) were calculated using the Cheng Prusoff equation (Ki=IC50/(1+(L/KD)), where L=concentration of radioligand in the assay, and KD=affinity of the radioligand for the receptor). A scatchard plot was used to determine the Kd.

In test [5] the target is T5, serotonin transporter (SERT) (Homo sapiens, UniProt P31645).
T5 construct: expressed in transfected cells; host or cells: CHO cells
T5 sequence (P31645 whole entry): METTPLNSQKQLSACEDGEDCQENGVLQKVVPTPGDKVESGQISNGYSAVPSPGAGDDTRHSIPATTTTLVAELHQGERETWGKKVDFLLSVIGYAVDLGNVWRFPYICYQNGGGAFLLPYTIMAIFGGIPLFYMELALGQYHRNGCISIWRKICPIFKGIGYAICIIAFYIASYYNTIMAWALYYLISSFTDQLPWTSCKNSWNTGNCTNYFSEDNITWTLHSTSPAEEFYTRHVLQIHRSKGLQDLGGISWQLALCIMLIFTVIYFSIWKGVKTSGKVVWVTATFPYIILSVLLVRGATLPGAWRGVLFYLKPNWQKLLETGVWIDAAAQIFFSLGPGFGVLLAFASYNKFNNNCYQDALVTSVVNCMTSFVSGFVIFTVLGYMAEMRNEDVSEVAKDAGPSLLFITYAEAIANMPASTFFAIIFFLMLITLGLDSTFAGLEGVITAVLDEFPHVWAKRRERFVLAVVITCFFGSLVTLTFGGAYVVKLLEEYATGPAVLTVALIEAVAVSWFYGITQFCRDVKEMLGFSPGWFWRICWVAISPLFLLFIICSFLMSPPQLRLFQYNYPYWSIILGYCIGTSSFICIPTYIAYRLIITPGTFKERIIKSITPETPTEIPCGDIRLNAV
Description: Radioligand binding assay, serotonin transporter (SERT). Conditions: binding assay, test compound 1×10^−6 M. The method, boiled down: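 Radioligand competition binding with scintillation detection; specific binding is total minus binding under excess unlabelled ligand. Reported as % of control specific binding or % inhibition; IC50 from Hill-equation non-linear regression of competition curves, and Ki via Cheng-Prusoff using radioligand concentration and Scatchard-derived KD.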

Each structure is given as a SMILES string.

A word on the inhibition: it is the drop in the measured response relative to a control, in per cent.

Chain of dopaminergic receptors D3 (P35462 whole entry): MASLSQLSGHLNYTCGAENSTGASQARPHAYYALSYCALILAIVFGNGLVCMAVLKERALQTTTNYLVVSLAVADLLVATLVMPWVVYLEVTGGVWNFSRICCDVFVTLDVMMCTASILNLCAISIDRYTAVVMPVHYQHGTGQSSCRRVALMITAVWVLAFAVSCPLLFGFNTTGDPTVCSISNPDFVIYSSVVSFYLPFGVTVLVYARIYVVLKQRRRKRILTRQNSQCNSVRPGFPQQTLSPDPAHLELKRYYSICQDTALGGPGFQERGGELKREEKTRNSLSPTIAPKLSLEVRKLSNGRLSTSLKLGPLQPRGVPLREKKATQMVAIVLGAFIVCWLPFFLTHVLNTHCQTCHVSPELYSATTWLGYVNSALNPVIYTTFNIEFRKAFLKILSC
T4 sequence (P34969 whole entry): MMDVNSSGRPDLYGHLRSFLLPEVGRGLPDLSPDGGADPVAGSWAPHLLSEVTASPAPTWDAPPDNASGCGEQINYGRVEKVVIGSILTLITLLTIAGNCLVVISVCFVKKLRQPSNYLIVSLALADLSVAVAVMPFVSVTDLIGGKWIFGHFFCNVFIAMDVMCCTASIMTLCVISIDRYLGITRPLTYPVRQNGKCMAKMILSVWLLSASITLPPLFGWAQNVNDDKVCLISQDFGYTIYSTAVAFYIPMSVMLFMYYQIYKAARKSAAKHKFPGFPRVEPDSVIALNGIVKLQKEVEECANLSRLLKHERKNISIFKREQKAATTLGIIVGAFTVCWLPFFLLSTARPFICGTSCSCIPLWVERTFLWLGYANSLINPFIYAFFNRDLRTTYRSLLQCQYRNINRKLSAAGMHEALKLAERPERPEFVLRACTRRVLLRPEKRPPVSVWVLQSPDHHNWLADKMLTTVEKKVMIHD
Chain of dopaminergic receptors D2 (P14416 whole entry): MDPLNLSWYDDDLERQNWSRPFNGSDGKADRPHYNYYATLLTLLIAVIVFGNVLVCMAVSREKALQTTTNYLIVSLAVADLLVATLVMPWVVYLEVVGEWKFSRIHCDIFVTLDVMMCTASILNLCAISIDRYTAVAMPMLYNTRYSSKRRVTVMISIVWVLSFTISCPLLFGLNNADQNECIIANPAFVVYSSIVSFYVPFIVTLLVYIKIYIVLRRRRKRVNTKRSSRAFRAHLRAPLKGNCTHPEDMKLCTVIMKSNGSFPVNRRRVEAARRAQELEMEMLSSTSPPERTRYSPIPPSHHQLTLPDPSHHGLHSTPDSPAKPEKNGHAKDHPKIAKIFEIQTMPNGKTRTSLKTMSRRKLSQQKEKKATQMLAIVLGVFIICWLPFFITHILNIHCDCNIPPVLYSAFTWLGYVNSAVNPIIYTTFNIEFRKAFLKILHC
T3 sequence (P50406 whole entry): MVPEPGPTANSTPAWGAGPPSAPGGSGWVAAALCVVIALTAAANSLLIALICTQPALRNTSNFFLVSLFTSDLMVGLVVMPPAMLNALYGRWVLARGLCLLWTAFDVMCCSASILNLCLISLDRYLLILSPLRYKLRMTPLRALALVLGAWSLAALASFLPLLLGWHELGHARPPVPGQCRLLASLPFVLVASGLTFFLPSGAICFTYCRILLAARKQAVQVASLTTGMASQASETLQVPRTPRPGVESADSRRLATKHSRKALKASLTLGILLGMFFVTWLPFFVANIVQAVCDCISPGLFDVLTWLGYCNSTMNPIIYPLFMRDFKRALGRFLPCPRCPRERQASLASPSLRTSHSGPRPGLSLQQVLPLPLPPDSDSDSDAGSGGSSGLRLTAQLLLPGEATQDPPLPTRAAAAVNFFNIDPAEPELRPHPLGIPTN

Turning to `O=S(=O)(NC1CCN(CCOc2cccc3[nH]ccc23)C1)c1ccc2ccccc2c1` (stereo not drawn) [Compound 54, N-[1-[2-(1H-Indol-4-yloxy)ethyl]pyrrolidin-3-yl]naphthalene-2-sulphonamide], the inhibition at 1 µM in test [1] was determined as 83%; in test [2], 105%; in test [3], 90%; on 5-HT2A receptor, 88%; at 5-HT6 receptor, 87%; on 5-HT7 receptor it was 102%. For the same compound, the inhibition at 1 µM in test [5] was determined as 46%. The “α1 [%]” value in test [4] was found to be 90%.

Consider `Cc1cccc(S(=O)(=O)NC2CCN(CCOc3cccc4[nH]ccc34)CC2)c1` [Compound 56, N-[1-[2-(1H-Indol-4-yloxy)ethyl]-4-piperidine]-3-methylbenzene-sulphonamide], for which the “D2 [%]” value in test [1] was found to be 34%. Also, the “D3 [%]” value in test [2] amounted to 98%. Also, in test [3], the “5-HT1A [%]” value is 75%. Moreover, the “5-HT2A [%]” value on 5-HT2A receptor is given as 84%. The “5-HT6 [%]” value on 5-HT6 receptor was 36%. Also, the “5-HT7 [%]” value on 5-HT7 receptor came out at 106%. In test [4], the “α1 [%]” value is listed as 74%. In addition, the “SERT [%]” value in test [5] came to 15%.

On to `O=S(=O)(NC1CCN(CCOc2cccc3[nH]ccc23)CC1)c1cccc2ccccc12` [Compound 60, N-[1-[2-(1H-Indol-4-yloxy)ethyl]-4-piperidine]naphthalene-1-sulphonamide], for which the “D2 [%]” value in test [1] came out at 41%. In test [2], the “D3 [%]” value amounted to 102%. In test [3], the “5-HT1A [%]” value worked out at 85%. Further, the “5-HT2A [%]” value at 5-HT2A receptor was 76%. For the same compound, the “5-HT6 [%]” value at 5-HT6 receptor was 69%. Moreover, at 5-HT7 receptor, the “5-HT7 [%]” value was 96%. The “α1 [%]” value in test [4] is on record as 87%. For the same compound, in test [5], the “SERT [%]” value is 21%.

Take `O=S(=O)(NC1CCN(CCOc2cccc3[nH]ccc23)CC1)c1ccc2ccccc2c1` [Compound 61, N-[1-[2-(1H-Indol-4-yloxy)ethyl]-4-piperidine]naphthalene-2-sulphonamide]: the “D2 [%]” value in test [1] is 39%. Besides, the “D3 [%]” value in test [2] is recorded as 83%. Further, the “5-HT1A [%]” value in test [3] is 77%. In addition, on 5-HT2A receptor, the “5-HT2A [%]” value worked out at 92%. Besides, the “5-HT6 [%]” value at 5-HT6 receptor was 71%. In addition, on 5-HT7 receptor, the “5-HT7 [%]” value came to 95%. The “α1 [%]” value in test [4] was determined as 79%. In test [5], the “SERT [%]” value came to 43%.

Turning to `O=S(=O)(NCC1CCN(CCOc2cccc3[nH]ccc23)CC1)c1ccc2ccccc2c1` [Compound 67, N-[[1-[2-(1H-Indol-4-yloxy)ethyl]-4-piperidine]methyl]naphthalene-2-sulphonamide], the “D2 [%]” value in test [1] is 57%. Besides, the “D3 [%]” value in test [2] came to 94%. Further, the “5-HT1A [%]” value in test [3] was determined as 76%. Further, on 5-HT2A receptor, the “5-HT2A [%]” value turned out to be 80%. In addition, at 5-HT6 receptor, the “5-HT6 [%]” value is 87%. The “5-HT7 [%]” value on 5-HT7 receptor was found to be 79%. In addition, the “α1 [%]” value in test [4] was 91%. Besides, the “SERT [%]” value in test [5] was 38%.

In the case of `O=S(=O)(NCC1CCN(CCOc2ccc3cc[nH]c3c2)CC1)c1cccc2ccccc12` [Compound 71, N-[[1-[2-(1H-Indol-6-yloxy)ethyl]-4-piperidine]methyl]naphthalene-1-sulphonamide], the “D2 [%]” value in test [1] was found to be 27%. Further, the “D3 [%]” value in test [2] is given as −1%. For the same compound, the “5-HT1A [%]” value in test [3] came to 28%. The “5-HT2A [%]” value on 5-HT2A receptor is reported as 26%. Besides, the “5-HT6 [%]” value on 5-HT6 receptor is listed as 80%. At 5-HT7 receptor, the “5-HT7 [%]” value was 31%. In addition, in test [4], the “α1 [%]” value was 36%. The “SERT [%]” value in test [5] stood at 49%.

With `O=S(=O)(NC1CCN(CCCc2c[nH]c3ccc(Cl)cc23)C1)c1ccccc1` (stereo not drawn) [Compound 81, N-[1-[3-(5-Chloro-1H-indol-3-yl)propyl]pyrrolidin-3-yl]benzene-sulphonamide], the inhibition at 1 µM in test [1] turned out to be 60%; in test [2], 86%; in test [3] it was 109%; on 5-HT2A receptor, 75%; at 5-HT6 receptor, 75%; at 5-HT7 receptor, 84%. Besides, in test [5], the inhibition at 1 µM is 78%. Moreover, in test [4], the “α1 [%]” value came out at 36%.

In the case of `O=S(=O)(NC1CCN(CCCc2c[nH]c3ccc(Cl)cc23)C1)c1ccc(F)cc1` (stereo not drawn) [Compound 83, N-[1-[3-(5-Chloro-1H-indol-3-yl)propyl]pyrrolidin-3-yl]-4-fluoro-benzenesulphonamide], the inhibition at 1 µM amounted to 44% in test [1]; 76% in test [2]; 104% in test [3]; 82% on 5-HT2A receptor; 84% on 5-HT6 receptor; 86% at 5-HT7 receptor. For the same compound, in test [5], the inhibition at 1 µM was 78%. Further, in test [4], the “α1 [%]” value turned out to be 23%.

Regarding `O=S(=O)(NC1CCN(CCCc2c[nH]c3ccc(Cl)cc23)C1)c1ccc(Cl)cc1` (stereo not drawn) [Compound 85, 4-Chloro-N-[1-[3-(5-chloro-1H-indol-3-yl)propyl]pyrrolidin-3-yl]-benzene-sulphonamide], the inhibition at 1 µM in test [1] came out at 45%; in test [2], 75%; in test [3], 102%; on 5-HT2A receptor, 64%; on 5-HT6 receptor it was 82%; at 5-HT7 receptor, 89%. Also, in test [5], the inhibition at 1 µM is 70%. Also, the “α1 [%]” value in test [4] was found to be 9%.

Consider `O=S(=O)(NC1CCN(CCCc2c[nH]c3ccc(Cl)cc23)C1)c1ccc2ccccc2c1` (stereo not drawn) [Compound 87, N-[1-[3-(5-Chloro-1H-indol-3-yl)propyl]pyrrolidin-3-yl]naphthalene-2-sulphonamide], for which the inhibition at 1 µM worked out at 63% in test [1]; 86% in test [2]; 105% in test [3]; 78% at 5-HT2A receptor; 91% on 5-HT6 receptor; 71% at 5-HT7 receptor. In addition, the inhibition at 1 µM in test [5] was determined as 64%. The “α1 [%]” value in test [4] came out at 18%.

Regarding `O=S(=O)(NC1CN(CCOc2cccc3c2OCCO3)C1)c1ccccc1` [Compound 88, N-[1-[2-(2,3-Dihydro-1,4-benzodioxan-8-yloxy)ethyl]azetidin-3-yl]-benzenesulphonamide], the “D2 [%]” value in test [1] is −5%. Moreover, in test [2], the “D3 [%]” value is −2%. For the same compound, the “5-HT1A [%]” value in test [3] amounted to 96%. In addition, at 5-HT2A receptor, the “5-HT2A [%]” value was found to be 34%. Besides, the “5-HT6 [%]” value on 5-HT6 receptor is recorded as 13%. In addition, the “5-HT7 [%]” value at 5-HT7 receptor stood at 84%. Besides, the “α1 [%]” value in test [4] is given as −23%. In addition, the “SERT [%]” value in test [5] is −13%.

As for `O=S(=O)(NC1CN(CCOc2cccc3c2OCCO3)C1)c1ccc(F)cc1` [Compound 90, N-[1-[2-(2,3-Dihydro-1,4-benzodioxan-8-yloxy)ethyl]azetidin-3-yl]-4-fluoro-benzenesulphonamide], in test [1], the “D2 [%]” value was 5%. Further, the “D3 [%]” value in test [2] is −7%. Besides, in test [3], the “5-HT1A [%]” value was found to be 82%. The “5-HT2A [%]” value at 5-HT2A receptor turned out to be 49%. The “5-HT6 [%]” value on 5-HT6 receptor was −16%. In addition, the “5-HT7 [%]” value at 5-HT7 receptor was found to be 92%. For the same compound, the “α1 [%]” value in test [4] was −25%. Also, in test [5], the “SERT [%]” value was found to be 18%.

The values above are taken from patent US20140135310A1, “SULPHONAMIDE DERIVATIVES OF ALICYCLIC AMINES FOR THE TREATMENT OF CENTRAL NERVOUS SYSTEM DISEASES” (Adamed Sp. z o.o., priority 2011, published 2014).
